What was measured:
[1] = system: deep partial thickness cutaneous burn injury, zone of stasis; experiment: Comb burn model for cutaneous burn; type: in vivo, Sprague-Dawley rats
[2] = system: hypoxic ventilatory response; experiment: Rat hypoxic ventilatory response (HVR) in sham and carotid sinus nerve (CSN) transection animals; type: in vivo, Sprague Dawley rats; details: 100 mg/kg L-PAG
Experimental: Male Sprague Dawley rats from Harlan Laboratories weighing 350±31 g (Mean±SD); were maintained on a 12 hour light:dark cycle (6 am lights on) with food and water ad libitum.
L-Propargyl Glycine (L-PAG) was solubilized in saline at 33.3 mg/ml.
Carotid sinus nerve (CSN) transaction—Under appropriate anesthesia the rat's neck is shaved and prepped for surgery with betadine solution. An incision is made in the throat area extending about 2 cm. The underlying musculature is incised to expose the carotid bifurcation on both sides. A silk suture is looped around the proximal external carotid and retracted laterally for control. […] The carotid sinus nerve is transected where it originates on the exposed part of the glossopharyngeal and ascends to the carotid bifurcation.
Animals were pre-habituated to the test environment on 2 separate 45 minute periods prior to the test day. Following administration of test compounds animals were placed inside the whole body plethysmography chamber. The animals were allowed to acclimate to the environment for 60 minutes while breathing a 21% O2 balance N2 gas mix. After acclimation, the following gas mix protocol was followed:
Cycles were designated to be the periods of both normoxia and hypoxia. Each experiment consisted of 2 cycles (or repeated sets) of the HVR to a normoxic-hypoxic shift. The cycles were 30 minutes in duration to allow for serial sampling from baseline and all 4 WBP test chambers. Each sampling period was of 4 minutes duration and was in a varying order but was always preceded by a 4 minute baseline. The sampling periods were calculated to allow for equilibration of the gas mixture in the WBP chamber. Switching of the multiplexer (MUX) line sampler system was achieved through use of a user defined program. The gas mixtures were likewise switched automatically using a user defined custom mix program and the Sable Systems/Alicat Multi Flow Controller utility.
Analysis of data was performed in GraphPad Prism (v5) using embedded 1-way Analysis of Variance (ANOVA) followed by Dunnett's or Tukey's MCT post hoc testing where appropriate. Bartlett's Equal Variance tests were performed on all data sets, however failure of equal variance was not considered to impinge the validity of the test.

[3] = Half-life of L-propargylglycine (statement in dosing rationale)

- half-life [3]: very long
SMILES: C#CC[C@H](N)C(=O)O [L-propargylglycine]
- Viability of zones of stasis/interspaces on gross examination (burn progression) ([1]; L-propargylglycine 100 mg/kg IP Day 0, Compound 1 20 mg/kg PO once daily, 6-day time course, versus control animals): maintain viability
- Perfusion in zones of stasis/interspace areas (LDI analysis) ([1]; over time course, control animals showed a decrease in perfusion): perfusion is maintained
- Blinded photo grading of treated interspaces versus control interspaces ([1]; within 48-72 hours, less injured versus worse/the same scale): less injured than controls
- HVR (change in slope of minute ventilation) ([2]; CSN transection animals): did not change
- Increase of minute ventilation (VE) when FiO2 changed from 21% to 10% ([2]; CSN transection animals): 22%
- Increase of minute ventilation (VE) when FiO2 changed from 21% to 10% ([2]; sham animals): 51%
- HVR (change in slope of minute ventilation) ([2]; sham animals, p<0.05): significantly reduced

From US20150272934A1, “USE OF CSE INHIBITORS FOR THE TREATMENT OF CUTANEOUS INJURIES OR CONDITIONS AND SLEEP-RELATED BREATHING DISORDERS” (SOVA PHARMACEUTICALS, INC., priority 2012, published 2015)
